“Also recorded” adds a separate entry of the source.
biological target: protein kinase; experiment: HTS ATP-utilizing enzyme assay, off-chip mobility-shift format (Caliper HTS 250); type: biochemical, human; conditions: kinase(s) for which the compound exhibits protein kinase inhibitory activity; test compound 10 μM; active = greater than three-sigma from the mean activity of inactive compounds
Procedure, shortened: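 Kinase reactions ran 2.5 h at 20 to 22 °C with test compound at 10 μM, in a HEPES pH 7.5 master buffer containing Triton X-100 and BSA. Peptide substrate and phosphorylated product separated by mobility shift; inhibition normalized to DMSO (0%) and EDTA (100%) controls, with three-sigma thresholds for hits.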

Compound | Kinase
CCn1c(SCC(=O)OC)nnc1-c1ccc(O)cc1 [methyl 2-(4-ethyl-5-(4-hydroxyphenyl)-4H-1,2,4-triazol-3-ylthio)acetate] | GSK3-β; also recorded: GSK3-α; also recorded: CHEK1
CCn1c(SCC(=O)OC)nnc1-c1ccc([N+](=O)[O-])cc1 [methyl 2-(4-ethyl-5-(4-nitrophenyl)-4H-1,2,4-triazol-3-ylthio)acetate] | PDGFRR-α and FYN
CCn1c(SCC(=O)OC)nnc1-c1ccccc1 [methyl 2-(4-ethyl-5-phenyl-4H-1,2,4-triazol-3-ylthio)acetate] | MAPKAPK-2
COC(=O)CSc1nnc(-c2ccncc2)[nH]1 [methyl 2-(5-(pyridin-4-yl)-4H-1,2,4-triazol-3-ylthio)acetate] | AURORA-A; also recorded: DYRK2; also recorded: GSK3-β

same assay, conditions: test compound 10 μM; active = activity greater than three-sigma from the mean of the predominately inactive population for that enzyme

Compound | protein kinase against which the compound exhibits inhibitory activity (Table 3)
CCOC(=O)c1ccc(CSc2nnc(-c3ccccc3)[nH]2)o1 [ethyl 5-((5-phenyl-4H-1,2,4-triazol-3-ylthio)methyl)furan-2-carboxylate] | AURORA-A; also recorded: FLT-3; also recorded: GSK3-β
CCC(c1ccccc1)c1nnc(SCc2ccc(C(=O)OC)cc2)[nH]1 (stereo not drawn) [methyl 4-((5-(1-phenylpropyl)-4H-1,2,4-triazol-3-ylthio)methyl)benzoate] | FLT-3
COC(=O)c1ccc(CSc2nnc(-c3cccs3)[nH]2)cc1 [methyl 4-((5-(thiophen-2-yl)-4H-1,2,4-triazol-3-ylthio)methyl)benzoate] | AURORA-A; also recorded: FLT-3; also recorded: c-TAK1
COC(=O)c1ccc(CSc2nnc(-c3cccc(C)c3)[nH]2)cc1 [methyl 4-((5-m-tolyl-4H-1,2,4-triazol-3-ylthio)methyl)benzoate] | AURORA-A; also recorded: FLT-3; also recorded: c-TAK1
COC(=O)c1ccc(CSc2nnc(C)[nH]2)cc1 [methyl 4-((5-methyl-4H-1,2,4-triazol-3-ylthio)methyl)benzoate] | DYRK2; also recorded: AURORA-A
